Experimental data from the METLIN SMRT retention time set (Domingo-Almenara et al. 2019).

Test: gradient 5% acetonitrile 3 min, to 50% in 2 min, to 85% in 15 min, held 3 min, 100 µL/min
Details: column: Zorbax Extend-C18 2.1 x 50 mm; eluents: water / acetonitrile, 0.1% formic acid
Method in brief: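 The system's dead and dwell volumes were 40 μL and 900 μL, with a Zorbax Extend-C18 column (2.1 × 50 mm, 1.8 μm) run at 100 μL/min in water and acetonitrile containing 0.1% formic acid each. Pure standards were analyzed in mixtures of ~100 molecules by HPLC–quadrupole time-of-flight mass spectrometry in positive and negative ionization mode. Retention time was assigned from computationally picked, manually inspected adduct peaks.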

Row | Structure (SMILES) | RP-LC retention time [s]
1 | CCOc1cc(=O)n2c(c1C(=O)Nc1cccc3c1CCCC3)CCCC2 | 804
2 | COc1cccc(CN2N=C(C(=O)N3CCOCC3)S(=O)(=O)c3ccc(Cl)cc32)c1 | 887
3 | CCN1C(SCC(=O)N2CCCC2)=NS(=O)(=O)c2ccccc21 | 684
4 | CCN(CC)CCCNC(=O)c1ccc(-c2ccc3c(c2)CCN3C(C)=O)cc1 | 612
5 | CCc1nc2ccc(CCC(=O)NCCCc3ccccc3)cc2[nH]1 | 614
6 | CCc1nnc(-c2ccc(S(=O)(=O)NC3CCCC3)o2)o1 | 815
7 | Cc1ccc(C)c(NS(=O)(=O)c2cc3n(c2)CCN(C)C3=O)c1 | 707
8 | O=C(NCC#CCN1CCc2ccccc2C1)Nc1cccs1 | 557
9 | CCSc1nnc(-c2nn(C)c3c2CN(C(=O)c2cccc(N(C)C)c2)CC3)n1C | 682
10 | Cn1c(=O)c2c(ncn2CC(=O)N2CCCC(c3nc(C4CCOCC4)no3)C2)n(C)c1=O (centres undefined) | 613
11 | O=C(c1cccc2[nH]cc(CN3CCCC3)c12)N1CCN(c2ccccc2)CC1 | 706
12 | Cn1cc(C(CNC(=O)Nc2ccccc2)c2cccnc2)c2ccccc21 (centres undefined) | 680
13 | C[C@H]1CN(C(=O)NC2CCCCC2)C[C@@H]1c1nc(-c2cccnc2)no1 | 784
14 | CC1Oc2ccc(S(=O)(=O)N3CCC(C(=O)NC4CCCC4)CC3)cc2NC1=O (centres undefined) | 740
15 | CCOc1cc(=O)n2c(c1C(=O)Nc1cc(F)cc(F)c1)CCCC2 | 794
16 | CC(C)c1nnc2n1CCN(C(=O)CCC1CCCC1)C2 | 714
17 | CCn1c(N2CCCC(C(=O)Nc3cc(OC)cc(OC)c3)C2)cc(=O)n(C)c1=O (centres undefined) | 829
18 | CCN(CC)C(=O)NCCc1noc(COC)n1 | 626
19 | CCc1noc(C2(NC(=O)c3cccc(Cl)c3)CCCCC2)n1 | 1030
20 | CS(=O)(=O)N1CCC(C(=O)N2CC3CC(C2)c2cccc(=O)n2C3)CC1 (centres undefined) | 528

Row | Structure (SMILES) | RP-LC retention time [s]
21 | Cc1ccnc(NC(=O)C2CCN(S(=O)(=O)c3ccc4c(c3)sc(=O)n4C(C)C)CC2)c1 | 794
22 | COc1ccc(OCc2noc(CNC(=O)Nc3cc(OC)c(OC)c(OC)c3)n2)cc1 | 743
23 | Cc1cccnc1NC(=O)Nc1c[nH]c2ccccc12 | 826
24 | CC1=CC(C)(C(Cl)(Cl)Cl)C(C)=C/C1=N/O (centres undefined) | 1100
25 | O=C(NC1CCN(Cc2ccccc2)CC1)C1CCCN(c2nccnc2Oc2ccccc2)C1 (centres undefined) | 680
26 | CCOC(=O)C1CCN(C2=NS(=O)(=O)c3ccccc32)CC1 | 739
27 | NS(=O)(=O)c1ccc(NS(=O)(=O)c2ccc3onc(C(=O)N4CCCCC4)c3c2)cc1 | 782
28 | Cc1ccc(S(=O)(=O)c2ccc([N+](=O)[O-])o2)cc1 | 873
29 | Cc1ccccc1NS(=O)(=O)c1cn(CC(C)C)c2ncccc12 | 976
30 | CCCS(=O)(=O)N1C[C@@H](COC)[C@H](c2ccncc2)C1 | 536
31 | CCOc1cc(CNC(=O)C2CCCN(C(=O)c3[nH]c(C)cc3C)C2)cc(OCC)c1OCC (centres undefined) | 876
32 | COCCc1noc([C@@H]2CC(F)(F)CN2C(=O)c2coc(C)n2)n1 | 705
33 | Cc1cc(C)cc(NC(=O)Nc2ccc3nncn3c2)c1 | 738
34 | CCc1ccc(N2C(=O)CN(S(C)(=O)=O)CC2(C)C(=O)NCc2ccc(C)cc2)cc1 (centres undefined) | 898
35 | CC[C@@]1(O)C(=O)OCc2c1cc1n(c2=O)Cc2cc3c(NC(=O)CN)cccc3nc2-1 | 626
36 | COc1ccccc1C(=O)NC1CCN(c2cc(C)cc(C)c2)C1=O (centres undefined) | 928
37 | COc1ccccc1CNC(=O)CN1CCN(Cc2ccc(F)cc2)C(=O)C1=O | 732
38 | COC(=O)c1cccc(NC(=O)NC(C)C(=O)N2CCc3ccccc32)c1 (centres undefined) | 792
39 | COc1ccc(CCNC(=O)c2ccc3[nH]c4c(c3c2)CN(C(C)=O)CC4)cc1OC | 650
40 | Cc1nn(C)c(C)c1CNC(=O)CN1CCN(Cc2ccc(F)cc2)C1=O | 623

Row | Structure (SMILES) | RP-LC retention time [s]
41 | Cc1cccc(CNC(=O)C2CCN(S(=O)(=O)c3ccc4c(c3)NC(=O)CO4)CC2)c1 | 794
42 | O=C(CN1C(=O)CCC1=O)Nc1nc(-c2ccc(Cl)cc2Cl)cs1 | 850
43 | O=C(CN1CCN(C(=O)Nc2ccc(Br)cc2)CC1=O)NCCC1=CCCCC1 | 834
44 | CCN(CC)c1ccc(-c2noc(CN3CCC(C)CC3)n2)cn1 | 593
45 | COc1ccc([N+](=O)[O-])cc1NC(=O)Cc1ccc(S(C)(=O)=O)cc1 | 695
46 | CCN1CCN(C(=O)C2CCCN(S(=O)(=O)c3cc(-c4noc(C)n4)cs3)C2)CC1 (centres undefined) | 612
47 | COCCNC(=O)c1nc(Nc2ccc(F)cc2)c2ccccc2n1 | 681
48 | COc1ccc(-c2c(C)noc2NC(C)=O)cc1S(=O)(=O)N1CCC2(CC1)OCCO2 | 680
49 | Cc1nn(CC(=O)N2CCN(c3ccccn3)CC2)c(=O)c2c1sc1ccccc12 | 640
50 | O=C(NCc1ccccc1Cl)c1ccc2c(c1)CCN2C(=O)C1CC1 | 856
51 | O=C(CCC(=O)N1CCN(c2ccc(=O)n(-c3ccccc3)n2)CC1)N1CCOCC1 | 612
52 | CC(=O)Nc1ccc(NC(=O)c2cc3sccc3n2Cc2ccc(F)cc2)cc1 | 911
53 | O=C(CN1CCN(Cc2ccc(F)cc2Cl)C1=O)N1CCN(C2CCCCC2)CC1 | 644
54 | O=C1[C@H]2CN(Cc3ccccc3Cl)C[C@H]2C(=O)N1Cc1ccc2c(c1)OCO2 | 930
55 | CC(=O)N1CCCC(c2nc(CNC(=O)C3CCC3)cs2)C1 (centres undefined) | 631
56 | C[C@H](NC(=O)Cc1cc(F)cc(F)c1)C(=O)N[C@H]1N=C(c2ccccc2)c2ccccc2N(C)C1=O | 853
57 | CCOc1ccc(CNC(=O)c2cn3c(n2)CCCC3)cc1 | 606
58 | O=C(CCc1ccc2cc[nH]c2c1)NCc1ccc(F)cc1 | 808
59 | CS(=O)(=O)N1CCCc2cc(C(=O)NCCCN3CCOCC3)ccc21 | 585
60 | CCc1ccc(NC(=O)c2ccc(=O)n(CCN3CCCC3)c2)cc1 | 650

Second part, the compound after the results:

Row | RP-LC retention time [s] | Structure (SMILES)
61 | 848 | COc1ccc(OC)c(CCN2CC(=O)N(c3cccc(C)c3)[C@@H]3CS(=O)(=O)C[C@@H]32)c1
62 | 939 | COc1ccccc1-c1noc(C2CCCN2C(=O)COc2ccccc2C)n1 (centres undefined)
63 | 942 | Cc1noc(C)c1-c1ccc(S(=O)(=O)NCc2ccc(F)cc2)cc1
64 | 734 | CCn1nccc1C(=O)N1CCC2(CC1)N=C(c1ccc(C)cc1)NO2
65 | 1290 | COC(=O)c1ccc2c(=O)n(-c3ccc(OC)cc3)c(N3CCN(c4ccccn4)CC3)nc2c1
66 | 1210 | CC(C)Oc1ccc(CNS(=O)(=O)c2cc(-c3nc(C(C)C)cs3)cs2)cc1
67 | 872 | CC(Oc1ccc(-c2cnc3ccccc3n2)cc1)C(=O)N1CCN(c2ncccn2)CC1 (centres undefined)
68 | 974 | O=C(c1cn2nc(Cl)ccc2n1)N(Cc1ccccc1)Cc1ccco1
69 | 683 | COc1ccc(NC(=O)c2cn(-c3ccc(C#N)cc3)cn2)cc1OC
70 | 913 | CS(=O)(=O)N1CCC(F)(c2nc(-c3ccccc3)no2)CC1
71 | 788 | Cc1ccc(-c2nc3ccc(C)cn3c2Nc2ccccc2C)cc1
72 | 861 | O=S(=O)(c1ccc2nncn2c1)N(Cc1ccc(F)cc1)c1cccc(F)c1
73 | 976 | Cc1ccccc1-c1nnc(COc2ccc(NC(=O)Cc3cccs3)cc2)o1
74 | 773 | COc1cccc(-n2c(N3CCC(C(=O)NCC(C)C)CC3)nc3ccsc3c2=O)c1
75 | 727 | Cc1cccc(NC(=O)N2CCC3(C2)C(=O)Nc2ccccc23)c1 (centres undefined)
76 | 642 | COc1ccc(Cl)cc1NC(=O)Nc1c(-c2ccncc2)nc2ccccn12
77 | 877 | CC(C)S(=O)(=O)c1ccc(CC(=O)N(Cc2cccs2)Cc2cccn2C)cc1
78 | 1020 | Cn1nccc1-c1cccc(-c2noc(-c3ccsc3)n2)c1
79 | 645 | COc1ccc(-c2cccc(NC(C)=O)c2)nn1
80 | 879 | Cc1noc2nc(C)n(CC(=O)Nc3cccc(C(F)(F)F)c3)c(=O)c12
81 | 865 | COC(=O)c1ccc(NC(=O)c2cc(C(C)(C)C)n3nccc3n2)cc1
82 | 883 | Cc1ccccc1-c1cn2ccn(-c3cccc(Cl)c3)c(=O)c2n1
83 | 863 | O=C(CCc1nc(CSc2nnc(-c3ccccc3)o2)no1)Nc1ccccc1
84 | 916 | Cc1nc(-c2noc(-c3ccccc3)n2)cn1CC(=O)Nc1cccc(Cl)c1
85 | 941 | CCc1nn2c(CNS(=O)(=O)c3cc(C)cc(C)c3)c(-c3ccccc3)nc2s1
86 | 1080 | COc1ccc(CNC(=O)c2cc3sccc3n2Cc2ccc(F)cc2)cc1
87 | 903 | CN1C(=O)c2cc(S(=O)(=O)NCc3ccccc3Cl)ccc2Oc2cccnc21
88 | 729 | CC(=O)Nc1ccc(Cc2nc(-c3ccc4c(c3)oc(=O)n4C)no2)cc1
89 | 692 | Cc1ccc(-c2cn3ccccc3n2)cc1NS(=O)(=O)c1ccc(Cl)cc1
